Source: US20060217425A1, “Methods of treating cancer using PPAR-gamma antagonists” (priority 2005, published 2006)
“Also recorded” adds a separate entry of the source. Like-named read-outs stand apart in the source and are kept apart here.

How the values were obtained:
Type in all cases: cell-based
[1] = system: panel of solid tumor and hematopoietic cancer cell lines; test: MTT proliferation assay, panel of solid tumor and hematopoietic cancer cell lines
Description: (§1) In one study, in vitro cytotoxicity of a PPARγ agonist with a favorable toxicity profile (pioglitazone [Actos®]) was tested against two PPARγ antagonists (T0070907 and GW9662) in a panel of solid tumor and hematopoietic cancer cell lines, using an MTT proliferation assay.
(§2) In one exemplary method, stock solutions of the above referenced agents were dissolved in 50:50 DMSO:DMF and then diluted into cell growth medium. Concentrations of 2-40 micromolar over 5-7 days provided significant growth inhibition for a range of hematopoietic (NHL & MM) and epithelial lines (renal cell, colon, breast). […] Also, both antagonists were dissolved in a cyclodextrin-propylene glycol vehicle and administered to mice at doses of 7.5-15 mg/kg intraperitoneally daily for 3 weeks with mild-moderate toxicity.

[2] = system: solid tumor lines; test: MTT proliferation assay, solid tumor lines
Description: as §1, §2

[3] = system: Hematopoietic (NHL and MM) cell lines; test: MTT proliferation assay, hematopoietic (NHL and MM) cell lines; details: unit printed only in the preceding sentence
Description: as §1, §2

IC50 ([2]; MTT proliferation assay, range across solid tumor lines, read-out: IC50 in solid tumor lines (range over lines)) [µM]	IC50 ([2]; mean±SD across solid tumor lines, read-out: IC50 in solid tumor lines, mean±SD) [µM]	SMILES	effect of combination with the agonist pioglitazone on growth inhibition of cancer cell lines [1]	relative potency ([1]; comparison of IC50 values)	IC50 ([3]; MTT proliferation assay, range across NHL and MM lines, read-out: IC50 in hematopoietic (NHL and MM) cell lines (range over lines)) [µM]	IC50 ([3]; mean±SD across NHL and MM lines, read-out: IC50 in hematopoietic (NHL and MM) cell lines, mean±SD) [µM]
		O=C(Nc1ccncc1)c1cc([N+](=O)[O-])ccc1Cl [T0070907]	additive increases in growth inhibition; also recorded: additive effects	more potent than GW9662		
		O=C(Nc1ccccc1)c1cc([N+](=O)[O-])ccc1Cl [GW9662]	additive increases in growth inhibition; also recorded: additive effects			
≥ 11.1	60.1 ± 28.1	CCc1ccc(CCOc2ccc(CC3SC(=O)NC3=O)cc2)nc1 (stereo not shown) [pioglitazone]			82 to 125	101 ± 17.7
